In US8741934B2, “Inhibitors of ion channels” (Pfizer Limited, priority 2007, dated 2014):

What follows are compounds tested against T1, hSCN3A sodium channels (Homo sapiens, UniProt Q9NY46) (assay: hSCN3A electrophysiology, whole-cell patch-clamp or PatchXpress 7000, estimated IC-50 (Table B)). Settings: not given.
T1 construct: expressed in transfected cells
Format: cell-based
Method in brief: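 Stably transfected HEK cells, whole-cell voltage clamp at 22-24° C, manual or PatchXpress 7000. Cells held at empirically determined inactivation V1/2; current evoked by 20 msec step to 0 mV after 8 sec prepulse to V1/2.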

T1 sequence (Q9NY46 whole entry): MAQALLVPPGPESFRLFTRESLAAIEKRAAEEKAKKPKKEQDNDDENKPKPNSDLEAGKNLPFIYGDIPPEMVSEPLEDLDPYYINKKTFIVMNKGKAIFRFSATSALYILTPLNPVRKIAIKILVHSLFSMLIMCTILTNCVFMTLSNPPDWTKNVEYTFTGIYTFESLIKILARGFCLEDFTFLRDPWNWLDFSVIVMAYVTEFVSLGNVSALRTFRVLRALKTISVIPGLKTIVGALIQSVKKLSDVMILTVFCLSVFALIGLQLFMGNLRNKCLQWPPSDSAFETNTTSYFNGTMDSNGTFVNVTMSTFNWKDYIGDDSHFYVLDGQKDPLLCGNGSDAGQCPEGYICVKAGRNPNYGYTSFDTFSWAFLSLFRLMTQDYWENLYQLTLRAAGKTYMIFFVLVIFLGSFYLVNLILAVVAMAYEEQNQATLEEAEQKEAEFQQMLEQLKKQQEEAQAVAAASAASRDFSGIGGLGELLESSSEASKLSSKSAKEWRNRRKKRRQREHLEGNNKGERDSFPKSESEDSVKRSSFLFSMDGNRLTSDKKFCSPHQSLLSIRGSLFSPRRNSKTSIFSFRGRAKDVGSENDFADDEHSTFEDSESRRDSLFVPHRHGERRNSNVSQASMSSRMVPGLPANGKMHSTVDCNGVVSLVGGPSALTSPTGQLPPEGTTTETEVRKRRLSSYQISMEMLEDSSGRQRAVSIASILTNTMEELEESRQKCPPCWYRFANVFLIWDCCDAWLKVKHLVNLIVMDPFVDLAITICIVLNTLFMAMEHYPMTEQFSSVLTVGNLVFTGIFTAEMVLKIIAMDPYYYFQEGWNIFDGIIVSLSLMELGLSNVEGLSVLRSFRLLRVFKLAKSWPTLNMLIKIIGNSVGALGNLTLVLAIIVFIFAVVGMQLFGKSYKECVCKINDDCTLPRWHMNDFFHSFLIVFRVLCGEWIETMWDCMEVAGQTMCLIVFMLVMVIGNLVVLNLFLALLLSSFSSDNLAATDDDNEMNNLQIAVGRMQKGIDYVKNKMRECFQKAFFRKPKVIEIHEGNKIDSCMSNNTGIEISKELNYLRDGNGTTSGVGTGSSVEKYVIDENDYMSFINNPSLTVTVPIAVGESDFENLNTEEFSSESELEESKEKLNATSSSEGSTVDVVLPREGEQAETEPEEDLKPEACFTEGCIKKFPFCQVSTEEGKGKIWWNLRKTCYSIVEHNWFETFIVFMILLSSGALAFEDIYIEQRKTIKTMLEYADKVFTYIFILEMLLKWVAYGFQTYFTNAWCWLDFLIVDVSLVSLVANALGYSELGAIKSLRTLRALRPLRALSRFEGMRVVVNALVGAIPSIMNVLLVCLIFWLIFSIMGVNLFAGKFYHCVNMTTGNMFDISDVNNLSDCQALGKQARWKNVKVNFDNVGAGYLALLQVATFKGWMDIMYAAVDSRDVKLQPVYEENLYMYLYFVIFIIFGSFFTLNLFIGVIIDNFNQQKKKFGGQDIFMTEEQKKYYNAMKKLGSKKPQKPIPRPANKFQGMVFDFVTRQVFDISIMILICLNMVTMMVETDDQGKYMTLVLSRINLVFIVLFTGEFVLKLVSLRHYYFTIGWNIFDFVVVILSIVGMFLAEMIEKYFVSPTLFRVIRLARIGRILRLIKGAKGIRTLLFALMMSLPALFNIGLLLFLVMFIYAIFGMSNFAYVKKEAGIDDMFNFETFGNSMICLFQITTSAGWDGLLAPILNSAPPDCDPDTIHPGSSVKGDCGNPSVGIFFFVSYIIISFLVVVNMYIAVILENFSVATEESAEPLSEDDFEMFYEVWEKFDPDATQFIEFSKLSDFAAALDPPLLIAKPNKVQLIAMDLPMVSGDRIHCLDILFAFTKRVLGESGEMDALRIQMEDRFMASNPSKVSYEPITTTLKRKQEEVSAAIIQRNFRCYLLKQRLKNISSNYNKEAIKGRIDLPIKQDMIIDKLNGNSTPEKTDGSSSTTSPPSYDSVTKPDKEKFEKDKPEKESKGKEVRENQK

| Compound | IC50 |
| --- | --- |
| O=C(NCc1ccc(C(F)(F)F)cc1)c1cccc(S(=O)(=O)Nc2nncs2)c1 [Example 350, 3-[(1,3,4-Thiadiazol-2-ylamino)sulfonyl]-N-[4-(trifluoromethyl)benzyl]benzamide] | > 10000 nM |

Same assay, conditions: estimated IC-50; hSCN3A cells, whole-cell patch-clamp or PatchXpress 7000; read-out: SCN3A EIC-50

| Compound | IC50 |
| --- | --- |
| O=C(NCc1ccc(C(F)(F)F)cc1)c1ccc(S(=O)(=O)Nc2cncs2)cc1 [Example 14, 4-[(1,3-Thiazol-5-ylamino)sulfonyl]-N-[4-(trifluoromethyl)benzyl]benzamide] | 28100 nM |
| O=C(NCc1cccc(OC(F)(F)F)c1)c1ccc(S(=O)(=O)Nc2nccs2)cc1 [Example 73, 4-[(1,3-Thiazol-2-ylamino)sulfonyl]-N-[3-(trifluoromethoxy)benzyl]benzamide] | 180 nM |
| O=C(NCc1cccc(C(F)(F)F)c1)c1ccc(S(=O)(=O)Nc2ncc(Cl)s2)cc1 [Example 28, 4-{[(5-Chloro-1,3-thiazol-2-yl)amino]sulfonyl}-N-[3-(trifluoromethyl)benzyl]benzamide] | 240 nM |
| N#Cc1cc(S(=O)(=O)Nc2ncc(Cl)s2)ccc1C(=O)NCc1ccc(C(F)(F)F)c(F)c1 [Example 348, 4-{[(5-Chloro-1,3-thiazol-2-yl)amino]sulfonyl}-2-cyano-N-[3-fluoro-4-(trifluoromethyl)benzyl]benzamide] | 1580 nM |
| O=C(NCc1ccccc1C(F)(F)F)c1ccc(S(=O)(=O)Nc2nccs2)cc1 [Example 88, 4-[(1,3-Thiazol-2-ylamino)sulfonyl]-N-[2-(trifluoromethyl)benzyl]benzamide] | > 100 nM |
| O=C(NCc1ccc(Oc2ccccc2)cc1)c1ccc(S(=O)(=O)Nc2nccs2)cc1 [Example 409, N-(4-phenoxybenzyl)-4-[(1,3-thiazol-2-ylamino)sulfonyl] benzamide] | 40 nM |
| Cc1cnc(NS(=O)(=O)c2ccc(C(=O)NCc3ccc(C(F)(F)F)cc3)cc2)s1 [Example 22, 4-{[(5-methyl-1,3-thiazol-2-yl)amino]sulfonyl}-N-[4-(trifluoromethyl)benzyl] benzamide] | 950 nM |
| O=C(NCc1ccc(C(F)(F)F)cc1)c1ccc(S(=O)(=O)Nc2ncc(Cl)s2)c(Cl)c1 [Example 373, 3-Chloro-4-{[(5-chloro-1,3-thiazol-2-yl)amino]sulfonyl}-N-[4-(trifluoromethyl)benzyl] benzamide] | 490 nM |
| O=C(NCc1ccc(C(F)(F)F)nc1)c1ccc(S(=O)(=O)Nc2nccs2)cc1 [Example 408, 4-[(1,3-Thiazol-2-ylamino)sulfonyl]-N-{[6-(trifluoromethyl)pyridin-3-yl]methyl}benzamide] | 1090 nM |
| O=C(NC1(Cc2ccc(Cl)cc2)CC1)c1ccc(S(=O)(=O)Nc2nccs2)cc1 [Example 134, N-[1-(4-chlorobenzyl)cyclopropyl]-4-[(1,3-thiazol-2-ylamino)sulfonyl]benzamide] | 2280 nM |
| O=C(NCc1ccc(Cl)c(F)c1)c1ccc(S(=O)(=O)Nc2nccs2)c(Cl)c1 [Example 292, 3-Chloro-N-(4-chloro-3-fluorobenzyl)-4-[(1,3-thiazol-2-yl-amino)sulfonyl]benzamide] | 900 nM |
| COc1cc(OC(F)(F)F)ccc1CNC(=O)c1ccc(S(=O)(=O)Nc2nccs2)cc1 [Example 404, N-[2-methoxy-4-(trifluoromethoxy)benzyl]-4-[(1,3-thiazol-2-ylamino)sulfonyl] benzamide] | 140 nM |
| O=C(NCc1ccc(OC(F)(F)F)c(F)c1)c1ccc(S(=O)(=O)Nc2ncc(Cl)s2)c(Cl)c1 [Example 365, 3-Chloro-4-{[(5-chloro-1,3-thiazol-2-yl)amino]sulfonyl}-N-[3-fluoro-4-(trifluoromethoxy)benzyl]benzamide] | 600 nM |
| O=C(NCc1ccc(OC(F)(F)F)c(F)c1)c1ccc(S(=O)(=O)Nc2ncc(Cl)s2)cc1 [Example 38] | 60 nM |
| O=C(NCc1ccc(C(F)(F)F)c(F)c1)c1ccc(S(=O)(=O)Nc2nccs2)c(F)c1 [Example 304, 3-Fluoro-N-[3-fluoro-4-(trifluoromethyl)benzyl]-4-[(1,3-thiazol-2-yl-amino)sulfonyl]benzamide] | 70 nM |
| CC(NC(=O)c1ccc(S(=O)(=O)Nc2ncns2)c(F)c1)c1ccc(C(F)(F)F)cc1 (centres unmarked) [Example 320, 3-Fluoro-4-[(1,2,4-thiadiazol-5-ylamino)sulfonyl]-N-{1-[4-(trifluoromethyl)phenyl]ethyl}benzamide] | 2660 nM |
| COc1ccc(CNC(=O)c2ccc(S(=O)(=O)Nc3nccs3)cc2)cc1 [Example 176, N-(4-methoxybenzyl)-4-[(1,3-thiazol-2-ylamino)sulfonyl]benzamide] | 4500 nM |
| O=C(NCc1ccc(OC(F)(F)F)cc1)c1ccc(S(=O)(=O)Nc2ncc(Cl)s2)c(Cl)c1 [Example 362, 3-Chloro-4-{[(5-chloro-1,3-thiazol-2-yl)amino]sulfonyl}-N-[4-(trifluoromethoxy)benzyl]benzamide] | 1090 nM |
| CC(C)(C)c1ccc(CNC(=O)c2ccc(S(=O)(=O)Nc3nccs3)cc2)cc1 [Example 387, N-(4-tert-butylbenzyl)-4-[(1,3-thiazol-2-ylamino)sulfonyl]benzamide] | 170 nM |
| O=C(NCCc1cccc(F)c1)c1ccc(S(=O)(=O)Nc2nccs2)cc1 [Example 75, N-[2-(3-fluorophenyl)ethyl]-4-[(1,3-thiazol-2-ylamino)sulfonyl]benzamide] | > 300 nM |
| O=C(NCc1cccc(C(F)(F)F)c1)c1ccc(S(=O)(=O)Nc2nccs2)cc1F [Example 327, 2-Fluoro-4-[(1,3-thiazol-2-ylamino)sulfonyl]-N-[3-(trifluoromethyl)benzyl]benzamide] | 260 nM |
| O=C(NCc1cccc(OC(F)(F)F)c1)c1ccc(S(=O)(=O)Nc2ncc(Cl)s2)cc1F [Example 357, 4-{[(5-Chloro-1,3-thiazol-2-yl)amino]sulfonyl}-2-fluoro-N-[3-(trifluoromethoxy)benzyl]benzamide] | 190 nM |
| O=C(NCc1ccc(OC(F)(F)F)c(F)c1)c1ccc(S(=O)(=O)Nc2nccs2)c(F)c1 [Example 305, 3-Fluoro-N-[3-fluoro-4-(trifluoromethoxy)benzyl]-4-[(1,3-thiazol-2-ylamino)sulfonyl]benzamide] | 60 nM |
| O=C(Nc1ccn(Cc2ccc(Cl)cc2)n1)c1ccc(S(=O)(=O)Nc2ncc(Cl)s2)c(F)c1 [Example 380, N-[1-(4-chlorobenzyl)-1H-pyrazol-3-yl]-4-{[(5-chloro-1,3-thiazol-2-yl)amino]sulfonyl}-3-fluorobenzamide] | 170 nM |
| O=C(NCc1ccc(C(F)(F)F)c(Cl)c1)c1ccc(S(=O)(=O)Nc2ncns2)c(F)c1 [Example 317, N-[3-chloro-4-(trifluoromethyl)benzyl]-3-fluoro-4-[(1,2,4-thiadiazol-5-ylamino)sulfonyl]benzamide] | 40 nM |
| O=C(NCc1ccc(C(F)(F)F)c(Cl)c1)c1ccc(S(=O)(=O)Nc2nccs2)cc1 [Example 396, N-[3-chloro-4-(trifluoromethyl)benzyl]-4-[(1,3-thiazol-2-ylamino)sulfonyl] benzamide] | 30 nM |
| O=C(Nc1nccc2ccccc12)c1ccc(S(=O)(=O)Nc2nccs2)cc1 [Example 117, N-isoquinolin-1-yl-4-[(1,3-thiazol-2-ylamino)sulfonyl]benzamide] | 12700 nM |

Same assay, conditions: read-out: SCN3A EIC-50

| Compound | IC50 |
| --- | --- |
| O=C(NCc1ccc(C(F)(F)F)c(F)c1)c1ccc(S(=O)(=O)Nc2ncc(Cl)s2)cn1 [Example 345, 5-{[(5-Chloro-1,3-thiazol-2-yl)amino]sulfonyl}-N-[3-fluoro-4-(trifluoromethyl)benzyl] pyridine-2-carboxamide] | 270 nM |
